Experiments:
Format in all cases: cell-based
[1] = tested on: Lactobacillus jensenii NCIMB 13279; experiment: MBC against Lactobacillus jensenii; conditions: substance alone
Protocol: The vaginal lactobacillus strains used are the NCIMB 4505 strain of Lactobacillus crispatus, the NCIMB 13279 strain of Lactobacillus jensenii and NCIMB 702820 strain of Lactobacillus gasseri. [table] The other assayed microbial strains were cultured in the liquid media and in the incubation conditions specified in table A, following the operating procedure described above. Immediately after determining the value of the MIC for each substance, a volume equivalent to 50 μl was taken from each well and streaked on the surface of plates containing the solid medium. The plates were subsequently incubated at the conditions indicated for each microbial strain. After incubation at 37° C. for 24 hours, the number of colonies grown on the medium surface was counted thus determining the number of bacteria that survived after 24 hours of contact with the substance at the concentration present in the well. The MBC value defined as the lowest concentration of each substance capable of reducing the bacterial load by 99.9% in the previously defined assay conditions was determined through comparison between the number of bacteria that survived in each well and that of the bacterial inoculum deposited initially.

[2] = tested on: Lactobacillus crispatus NCIMB 4505; experiment: MIC against Lactobacillus crispatus; conditions: substance alone
Protocol: (§1) The vaginal lactobacillus strains used are the NCIMB 4505 strain of Lactobacillus crispatus, the NCIMB 13279 strain of Lactobacillus jensenii and NCIMB 702820 strain of Lactobacillus gasseri. [table] The other assayed microbial strains were cultured in the liquid media and in the incubation conditions specified in table A, following the operating procedure described above. The assay was carried out in 96-well microtitre plates. 50 μl of substance solution at the “mother” concentration alongside 50 μl of liquid medium at double concentration were deposited in the first well of each of the 8 rows while 50 μl of liquid medium at normal concentration were deposited in the remaining 11 wells. Starting from the first well of each row, 50 μl volumes were transferred from each well to the subsequent one 10 times, thus obtaining a series of 11 dilutions after doubling. The 12th well of each row was kept substance-free as a function of positive control of the bacterial growth. Subsequently, 50 μl of diluted bacterial inoculum as specified previously were deposited in all wells of the plate, except for the 11th of each row. Only the liquid medium at single concentration but bacteria-free, was deposited in the 11th well, with the aim of providing negative control for each row. The described scheme was used for the assay with each of the assayed microbial strains. […]

Streptococcus agalactiae = experiment: Minimum Inhibitory Concentration (MIC) on agarised medium against Streptococcus agalactiae
Protocol: The assay was carried out on an M-Ha medium+blood at 5%. The medium was prepared at a concentration 33% higher with respect to the final one used in the test corresponding to the one indicated by the supplier. After sterilisation in autoclave, the medium was balanced at the temperature of 48° C. and added with horse blood at the concentration of 6.6% (33% higher than the final concentration of the assay). 15 ml aliquots of M-Ha medium+blood were transferred into 50 ml falcon test tubes maintained at 48° C., added with 5 ml of the dilutions of the substances to be assayed, mixed, poured into Petri dishes and left to solidify. Twenty-five bacterial inoculums, each with approximate volume of about 5 μl and containing about 10^5 ufc, were deposited on the surface of the M-Ha medium+blood of each plate. After incubation at 37° C. for 18 hours the minimum inhibitory concentration (MIC) defined as the minimum concentration of substance capable of inhibiting a bacterial growth noticeable to the naked eye at the area of deposition of the inoculums was read.
In the test with Streptococcus agalactiae the minimum inhibitory concentrations in the assay in liquid medium, regarding which only the bactericide minimum concentration values are indicated, could not be determined with sufficient reliability due to the turbidity of the solutions containing the substances. “Determination of the Minimum Inhibitory Concentration on Agarised Medium” was carried out to obtain the MIC values.

[3] = tested on: Lactobacillus gasseri NCIMB 702820; experiment: MIC against Lactobacillus gasseri; conditions: substance alone
Protocol: as §1

[4] = tested on: Lactobacillus jensenii NCIMB 13279; experiment: MIC against Lactobacillus jensenii; conditions: substance alone
Protocol: as §1

Row | Substance | MBC [1] | MIC [2] | MIC (minimum inhibiting concentration) (Streptococcus agalactiae; strain 2, substance alone) | MIC (minimum inhibiting concentration) (Streptococcus agalactiae; strain 5, substance alone) | MIC (minimum inhibiting concentration) (Streptococcus agalactiae; strain 6, substance alone) | MIC (minimum inhibiting concentration) (Streptococcus agalactiae; strain 7, substance alone) | MIC (minimum inhibiting concentration) (Streptococcus agalactiae; strain 8, substance alone) | MIC (minimum inhibiting concentration) (Streptococcus agalactiae; strain 9, substance alone) | MIC (minimum inhibiting concentration) (Streptococcus agalactiae; strain 10, substance alone) | MIC (minimum inhibiting concentration) (Streptococcus agalactiae; strain 11, substance alone) | MIC (minimum inhibiting concentration) (Streptococcus agalactiae; strain 12, substance alone) | MIC (minimum inhibiting concentration) (Streptococcus agalactiae; strain 13, substance alone) | MIC (minimum inhibiting concentration) (Streptococcus agalactiae; strain 14, substance alone) | MIC (minimum inhibiting concentration) (Streptococcus agalactiae; strain 15, substance alone) | MIC (minimum inhibiting concentration) (Streptococcus agalactiae; strain 16, substance alone) | MIC (minimum inhibiting concentration) (Streptococcus agalactiae; strain 17, substance alone) | MIC (minimum inhibiting concentration) (Streptococcus agalactiae; strain 18, substance alone) | MIC (minimum inhibiting concentration) (Streptococcus agalactiae; strain 19, substance alone) | MIC (minimum inhibiting concentration) (Streptococcus agalactiae; strain 20, substance alone) | MIC (minimum inhibiting concentration) (Streptococcus agalactiae; strain 21, substance alone) | also measured
1 | lauryl glucoside/C12-C16 alkyl polyglucoside [Substance A2] | 0.077% | 0.038% | 0.0097% | 0.019% | 0.0097% | 0.0097% | 0.019% | 0.0097% | 0.019% | 0.0097% | 0.0097% | 0.0097% | 0.0097% | 0.019% | 0.0097% | 0.0097% | 0.019% | 0.0097% | 0.0097% | 0.0097% | MIC (minimum inhibiting concentration) (Streptococcus agalactiae; strain 22, substance alone): 0.0097%; MIC (minimum inhibiting concentration) (Streptococcus agalactiae; strain 23, substance alone): 0.0097%; MIC (minimum inhibiting concentration) (Streptococcus agalactiae; strain 24, substance alone): 0.0097%; MIC (minimum inhibiting concentration) (Streptococcus agalactiae; strain 25, substance alone): 0.0097%; MIC (minimum inhibiting concentration) (Streptococcus agalactiae; strain 12386, substance alone): 0.0097%; MIC (minimum inhibiting concentration) (Streptococcus agalactiae; strain 12403, substance alone): 0.0097%; MIC (minimum inhibiting concentration) (Streptococcus agalactiae; strain 27956, substance alone): 0.019%; MIC [3]: 0.077%; MIC [4]: 0.077%
2 | caprylyl/capryl glucoside/C8-C10 alkyl polyglucoside [Substance A1] | 0.193% | 0.097% | 0.093% | 0.093% | 0.048% | 0.093% | 0.19% | 0.093% | 0.19% | 0.093% | 0.093% | 0.093% | 0.093% | 0.048% | 0.093% | 0.048% | 0.19% | 0.093% | 0.048% | 0.048% | MIC (minimum inhibiting concentration) (Streptococcus agalactiae; strain 22, substance alone): 0.093%; MIC (minimum inhibiting concentration) (Streptococcus agalactiae; strain 23, substance alone): 0.093%; MIC (minimum inhibiting concentration) (Streptococcus agalactiae; strain 24, substance alone): 0.093%; MIC (minimum inhibiting concentration) (Streptococcus agalactiae; strain 25, substance alone): 0.048%; MIC (minimum inhibiting concentration) (Streptococcus agalactiae; strain 12386, substance alone): 0.093%; MIC (minimum inhibiting concentration) (Streptococcus agalactiae; strain 12403, substance alone): 0.093%; MIC (minimum inhibiting concentration) (Streptococcus agalactiae; strain 27956, substance alone): 0.093%; MIC [3]: 0.097%; MIC [4]: 0.193%

— US20140051650A1, “VAGINAL COMPOSITIONS BASED ON ALKYL POLYGLUCOSIDES” (EFFIK S.A., priority 2011, published 2014)
